Consider 30 compounds from patent EP4631938A1, “NITROGEN-CONTAINING HETEROCYCLE WITH SEROTONIN RECEPTOR-BINDING ACTIVITY AND CARBOCYCLIC DERIVATIVE” (Shionogi & Co., Ltd, priority 2022, dated 2024).

In test [1] the target is T1, human recombinant 5-HT2A receptor (Homo sapiens, UniProt P28223).
T1 construct: expressed in transfected cells; host or cells: Jump-In HEK cells (membrane preparation)
The experiment in a line: Test Example 1-2: 5-HT2A receptor binding inhibition test ([3H]-Ketanserin; non-specific ligand Ketanserin). The note with it: [3H]-Ketanserin; non-specific binding with 500 µmol/L Ketanserin; room temperature (25°C), 1.5 hours; read-out: h 5-HT2A Ki. Here is the method:
The Kd value is calculated when the lot of the cell membrane is changed. 1 mmol/L non-specific binding calculating compound dissolved in DMSO or DMSO is previously dispensed to the microplate by 0.5 µL, and the cell membrane is diluted with an Assay buffer. The radioactive ligand solution is diluted step by step, and counts are checked with a liquid scintillator. The Assay buffer containing diluted cell membranes is dispensed by 50 µL/well into the microplate. The radioactive ligand solution is then dispensed by 50 µL/well into the microplate and the plate is sealed. The microplate is allowed to stand for 1.5 hours at room temperature (25°C). During this time, 50 mmol/L Tris-HCl (pH 7.4) is dispensed by 50 µL/well into the UniFilter plate and allowed to stand at 4°C for 1 hour or longer. Thereafter, filtration is performed with a Cell Harvester (PerkinElmer). The radioactive ligand solution is dispensed by 10 µL/well into empty wells of the UniFilter plate. After drying the UniFilter plate at room temperature, MicroScinti20 is dispensed by 50 µL/well into the UniFilter plate, and the plate is sealed. UniFilter plate is allowed to stand at room temperature overnight. The radioactivity of [^3H]-Ketanserin bound to the 5-HT2A receptor is measured using Microbeta2 (PerkinElmer) at a measurement time of 1 min/well. The Saturation curve is drawn from the measured value, and the Kd value is calculated from the slope of the Scatchard Plot.
A compound solution dissolved in DMSO is dispensed to a microplate by 0.5 µL, and a cell membrane and a hot ligand are each diluted with an Assay buffer. The Assay buffer containing diluted cell membrane is then dispensed by 50 µL/well into the microplate. The radioactive ligand solution is then dispensed by 50 µL/well into the microplate and the plate is sealed. Thereafter, the microplate is allowed to stand at room temperature (25°C) for 1.5 hours. During this time, 50 mmol/L Tris-HCl (pH 7.4) is dispensed by 50 µL/well into the UniFilter plate and allowed to stand at 4°C for 1 hour or longer. Thereafter, filtration is performed with a Cell Harvester (PerkinElmer). After drying the UniFilter plate at room temperature, MicroScinti20 is dispensed by 50 µL/well into the UniFilter plate, and the plate is sealed. UniFilter plate is allowed to stand at room temperature overnight. The radioactivity of [^3H]-Ketanserin bound to the 5-HT2A receptor is measured using Microbeta2 (PerkinElmer) at a measurement time of 1 min/well. Non-specific binding is calculated from the radioactivity of [^3H]-Ketanserin in the presence of 500 µmol/L Ketanserin of unlabeled ligand, and total binding is calculated from the radioactivity of [^3H]-Ketanserin in the absence of the compound of the present invention (Vehicle). Finally, the Ki value is calculated from the dose-response curve.
(§1) (The binding activity of the compound according to the present invention is calculated from the following binding inhibition rate (%).) Inhibition rate (%) = [1−(c−a)/(b−a)] × 100 [formula] • a; average cpm of non-specific binding • b; average cpm of total binding • c; cpm in the presence of the test compound
(§2) The compounds of the present invention were tested essentially as described above.

For test [2], the target named is T2, human recombinant 5-HT2C receptor (Homo sapiens, UniProt P28335).
T2 construct: expressed in transfected cells; host or cells: Jump-In HEK cells (membrane preparation)
T2 sequence (P28335 33-458): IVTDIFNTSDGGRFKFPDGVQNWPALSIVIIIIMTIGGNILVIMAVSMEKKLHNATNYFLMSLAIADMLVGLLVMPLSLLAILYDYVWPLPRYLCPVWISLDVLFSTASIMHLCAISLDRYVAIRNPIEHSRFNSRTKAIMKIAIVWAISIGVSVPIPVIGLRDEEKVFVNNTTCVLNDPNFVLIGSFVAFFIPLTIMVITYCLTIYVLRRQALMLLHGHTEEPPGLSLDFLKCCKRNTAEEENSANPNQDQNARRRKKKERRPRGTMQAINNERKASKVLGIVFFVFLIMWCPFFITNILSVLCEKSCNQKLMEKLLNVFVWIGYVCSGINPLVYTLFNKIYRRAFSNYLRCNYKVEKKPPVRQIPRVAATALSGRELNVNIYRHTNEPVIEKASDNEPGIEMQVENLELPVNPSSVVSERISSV
Put plainly: Test Example 2: 5-HT2C receptor binding inhibition test ([3H]-Mesulergine; non-specific ligand Serotonin HCl). The note with it: human serotonin 5-HT2C receptor binding activity. Here is the method:
The Kd value is calculated when the lot of the cell membrane is changed. 1 mmol/L non-specific binding calculating compound dissolved in DMSO or DMSO is previously dispensed to the microplate by 0.5 µL, and the cell membrane is diluted with an Assay buffer. The radioactive ligand solution is diluted step by step, and counts are checked with a liquid scintillator. The Assay buffer containing diluted cell membranes is dispensed by 50 µL/well into the microplate. The radioactive ligand solution is then dispensed by 50 µL/well into the microplate and the plate is sealed. The microplate is allowed to stand at 37°C for 2 hours. During this time, 50 mmol/L Tris-HCl (pH 7.4) is dispensed by 50 µL/well into the GF/B UniFilter plate and allowed to stand at 4°C for 1 hour or longer. Thereafter, filtration is performed with a Cell Harvester (PerkinElmer). The radioactive ligand solution is dispensed by 10 µL/well into empty wells of the GF/B UniFilter plate. After drying the GF/B UniFilter plate at room temperature, MicroScinti20 is dispensed by 50 µL/well into the GF/B UniFilter plate, and the plate is sealed. GF/B UniFilter plate is allowed to stand at room temperature overnight. The radioactivity of [^3H]-Mesulergine bound to the 5-HT2C receptor is measured using Microbeta2 (PerkinElmer) at a measurement time of 1 min/well. The Saturation curve is drawn from the measured value, and the Kd value is calculated from the slope of the Scatchard Plot.
A compound solution dissolved in DMSO is dispensed to a microplate by 0.5 µL, and a cell membrane and a hot ligand are each diluted with an Assay buffer. The Assay buffer containing diluted cell membrane is then dispensed by 50 µL/well into the microplate. The radioactive ligand solution is then dispensed by 50 µL/well into the microplate and the plate is sealed. The microplate is then allowed to stand at 37°C for 2 hours. During this time, 50 mmol/L Tris-HCl (pH 7.4) is dispensed by 50 µL/well into the GF/B UniFilter plate and allowed to stand at 4°C for 1 hour or longer. Thereafter, filtration is performed with a Cell Harvester (PerkinElmer). After drying the GF/B UniFilter plate at room temperature, MicroScinti20 is dispensed by 50 µL/well into the GF/B UniFilter plate, and the plate is sealed. GF/B UniFilter plate is allowed to stand at room temperature overnight. The radioactivity of [^3H]-Mesulergine bound to the 5-HT2C receptor is measured using Microbeta2 (PerkinElmer) at a measurement time of 1 min/well. Non-specific binding is calculated from the radioactivity of [^3H]-Mesulergine in the presence of 500 µmol/L Serotonin HCl of unlabeled ligand, and total binding is calculated from the radioactivity of [^3H]-Mesulergine in the absence of the compound of the present invention (Vehicle). Finally, the Ki value is calculated from the dose-response curve.
as §1, §2

T1 sequence (P28223 whole entry): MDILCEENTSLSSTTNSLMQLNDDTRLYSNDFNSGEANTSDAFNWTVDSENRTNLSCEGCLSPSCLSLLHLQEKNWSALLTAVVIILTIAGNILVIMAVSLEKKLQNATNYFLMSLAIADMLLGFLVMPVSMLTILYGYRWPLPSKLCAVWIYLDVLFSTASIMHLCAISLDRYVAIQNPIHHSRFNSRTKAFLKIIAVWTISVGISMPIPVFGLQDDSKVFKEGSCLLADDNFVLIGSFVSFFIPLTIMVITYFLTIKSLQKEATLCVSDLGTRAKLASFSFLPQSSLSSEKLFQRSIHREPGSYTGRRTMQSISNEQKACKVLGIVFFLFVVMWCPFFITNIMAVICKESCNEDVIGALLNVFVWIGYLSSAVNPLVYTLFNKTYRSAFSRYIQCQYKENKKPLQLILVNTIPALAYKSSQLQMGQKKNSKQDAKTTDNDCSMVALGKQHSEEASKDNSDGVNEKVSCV

As for `COCc1nc(C)c(-c2cc(Nc3ncc(OC(F)F)cc3Cl)ncc2OCCO)c(C)n1` [Compound I-231], the results for the Ki in test [1] and in test [2] were 3.78 nM and 5.1 nM, respectively.

As to `Cc1cc(OC(F)(F)F)ccc1Nc1ncc(OCCO)c(-c2c(Br)cnn2C)n1` [Compound I-346], the Ki in test [1] stood at 0.24 nM; in test [2] it was 1.7 nM.

`Cn1ncc(Cl)c1-c1cc(Nc2ncc(C(F)(F)F)cn2)ncc1OCCO` [Compound I-311]: the figures for the Ki in test [1] and in test [2] were 0.432 nM and 6.41 nM, respectively.

`Cc1cnn(C)c1-c1cc(Nc2ccc(OC(F)(F)F)cn2)ncc1OCCO` [Compound I-293]: the inhibition constant Ki in test [1] is 0.259 nM; in test [2], 3.67 nM.

As to `Cc1cnn(C)c1-c1nc(Nc2ccc(Cl)cc2F)c(F)cc1OCCO` [Compound I-282], the Ki in test [1] is 0.223 nM; in test [2], 6.19 nM.

As for `Cn1ncc(Br)c1-c1nc(Nc2ccc(C(F)(F)F)nc2)c(F)cc1OCCO` [Compound I-290], the Ki in test [1] came to 0.438 nM; in test [2], 17.6 nM.

As to `CCc1nc(C)c(-c2cc(Nc3ncc(C(F)(F)F)cc3Cl)ncc2OCCO)c(C)n1` [Compound I-221], the Ki in test [1] was 0.996 nM; in test [2] it was 2.23 nM.

In the case of `COCc1nc(C)c(-c2cc(Nc3ncc(-c4ccc(Cl)cc4F)cc3Cl)ncc2OCCO)c(C)n1` [Compound I-263], the inhibition constant Ki in test [1] stood at 0.577 nM; in test [2] it was 0.318 nM.

Consider `COCc1nc(C)c(-c2cc(Nc3ncc(-c4ccc(F)cc4)cc3F)ncc2OCCO)c(C)n1` [Compound I-251], for which the values for the Ki in test [1] and in test [2] were 0.325 nM and 0.393 nM, respectively.

Consider `Cc1cc(OC(F)(F)F)cnc1Nc1cc(-c2c(Br)cnn2C)c(OCCO)cn1` [Compound I-179], for which the inhibition constant Ki in test [1] came out at 0.278 nM; in test [2], 0.296 nM.

Consider `Cn1ncc(Br)c1-c1nc(Nc2ccc(C#N)cc2)ncc1OCCO` [Compound I-352], for which the Ki in test [1] turned out to be 0.202 nM; in test [2], 5.99 nM.

As for `Cc1cc(OC(F)(F)F)cnc1Nc1cc(-c2c(C)cnn2C)c(OCCO)cn1` [Compound I-180], the Ki worked out at 0.346 nM in test [1] and 1.86 nM in test [2].

Turning to `Cn1ncc(Cl)c1-c1cc(Nc2ncc(C(F)(F)F)cn2)c(Cl)cc1OCCO` [Compound I-410], the Ki in test [1] was determined as 0.573 nM; in test [2], 3.94 nM.

In the case of `COCc1nc(C)c(-c2nc(Nc3ccc(C(F)(F)F)c(C#N)n3)c(F)cc2OCCO)c(C)n1` [Compound I-396], the Ki in test [1] stood at 9.96 nM; in test [2] it was 17.2 nM.

As to `Cn1ncc(Br)c1-c1nc(Nc2ccc(Cl)cc2)ncc1OCCO` [Compound I-339], the Ki in test [1] was determined as 0.217 nM; in test [2], 2.52 nM.

For `COCCc1nc(C)c(-c2cc(Nc3ncc(C(F)(F)F)cc3Cl)ncc2OCCO)c(C)n1` [Compound I-217], the Ki in test [1] was found to be 1.74 nM; in test [2] it was 2.66 nM.

As to `COCc1nc(C)c(-c2cc(Nc3ccc(-c4ccc(Cl)cc4)cn3)ncc2OCCO)c(C)n1` [Compound I-273], the Ki worked out at 0.309 nM in test [1] and 0.395 nM in test [2].

With `Cn1ncc(Br)c1-c1cc(Nc2ncc(OC(F)(F)F)cc2F)c(F)cc1OCCO` [Compound I-168], the Ki is 0.248 nM in test [1] and 0.162 nM in test [2].

For the compound `Cc1nc(C)c(-c2cc(Nc3ncc(-c4ccc(C(F)(F)F)cc4)cn3)ncc2OCCO)c(C)n1` [Compound I-319], the Ki stood at 0.65 nM in test [1] and 2.02 nM in test [2].

For `Cn1ncc(Br)c1-c1cc(Nc2ncc(F)cn2)c(F)cc1OCCO` [Compound I-165], the Ki in test [1] came to 0.389 nM; in test [2], 9.78 nM.

With `COCc1nc(C)c(-c2cc(Nc3ncc(OCC(F)(F)C(F)(F)F)cc3Cl)ncc2OCCO)c(C)n1` [Compound I-233], the Ki came to 4.42 nM in test [1] and 1.76 nM in test [2].

As to `Cn1ncc(Br)c1-c1nc(Nc2ccc(C(F)(F)F)cc2)ncc1OCCO` [Compound I-336], the values for the inhibitory constant (Ki) in test [1] and in test [2] were 0.226 nM and 0.748 nM, respectively.

On to `Cn1ncc(Br)c1-c1cc(Nc2ccc(Cl)cn2)ncc1OCCO` [Compound I-284], for which the results for the Ki in test [1] and in test [2] were 0.301 nM and 2.07 nM, respectively.

For the compound `COCc1nc(C)c(-c2cc(Nc3ncc(-c4nc(C(F)(F)F)cs4)cc3Cl)ncc2OCCO)c(C)n1` [Compound I-328], the inhibition constant Ki in test [1] stood at 1.1 nM; in test [2], 0.499 nM.

`Cn1ncc(Br)c1-c1cc(Nc2ncc(C3CC3)cn2)ncc1OCCO` [Compound I-281]: the Ki in test [1] is 0.668 nM; in test [2], 6.55 nM.

As to `Cn1ncc(Br)c1-c1cc(Nc2ccc(C(F)(F)F)cn2)c(Cl)cc1OCCO` [Compound I-400], the Ki in test [1] amounted to 0.338 nM; in test [2] it was 1.38 nM.

Take `Cn1ncc(Cl)c1-c1cc(Nc2ncc(OC(F)F)cc2F)ncc1OCCO` [Compound I-304]: the inhibitory constant (Ki) in test [1] was found to be 0.169 nM; in test [2], 0.644 nM.

As to `Cn1ncc(Br)c1-c1cc(Nc2ncc(OC(F)(F)F)cn2)ncc1OCCO` [Compound I-296], the Ki in test [1] was 0.349 nM; in test [2], 3.02 nM.

In the case of `Cn1ncc(Br)c1-c1nc(Nc2ccc(Cl)cc2Cl)ncc1OCCO` [Compound I-342], the Ki turned out to be 0.256 nM in test [1] and 1.88 nM in test [2].

Consider `Cn1ncc(Br)c1-c1cc(Nc2ncc(Cl)cn2)c(Cl)cc1OCCO` [Compound I-398], for which the inhibitory constant (Ki) in test [1] was 0.576 nM; in test [2], 5.26 nM.

The Ki is the dissociation constant of the complex between target and ligand, obtained from inhibition or displacement.
